Laboratory results as given in ChEMBL document CHEMBL1201862, “PubChem BioAssay data set” (2004).
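Grown in 96-well plates, cells were treated for 48 hours with each compound at five concentrations. Insufficient inhibition: endpoint recorded as highest concentration tested. GI50 marks 50% less growth.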 Active and inactive are the calls of the source. No stated cut-off is given here; in the data, active = GI50 up to about 1.1 µM and inactive = higher.

Assays:
Assay in all cases: NCI anticancer screen, dose series, 48 h
[1] = tested on: 786-0
[2] = tested on: A549
[3] = tested on: COLO 205
[4] = tested on: DU-145
[5] = tested on: EKVX
[6] = tested on: HCC 2998
[7] = tested on: HL-60
[8] = tested on: Hs-578T
[9] = tested on: M14
[10] = tested on: MDA-MB-231
[11] = tested on: MDA-MB-435
[12] = tested on: MOLT-4
[13] = tested on: NCI-H460
[14] = tested on: OVCAR-5
[15] = tested on: RXF 393
[16] = tested on: SF-539
[17] = tested on: SK-MEL-2
[18] = tested on: SK-OV-3
[19] = tested on: UACC-257
[20] = tested on: Malme-3M

Measured: GI50

C=CC[C@H]1[C@H](O[Si](C)(C)C(C)(C)C)C=CC(=O)[C@@H]1CC(=O)N(Cc1ccccc1)Cc1ccccc1
inactive: [1] 17.5 µM | [2] 20.5 µM | [3] 12.9 µM | [4] 27.2 µM | [5] 12.9 µM | [6] 20.3 µM | [7] 5.48 µM | [8] 6.27 µM | [9] 18.1 µM | [10] 14.2 µM | [11] 20.9 µM | [12] 9.93 µM | [13] 20.6 µM | [14] 32.4 µM | [15] 6.15 µM | [16] 25.1 µM | [17] 14.8 µM | [18] 26.1 µM | [19] 11.5 µM

OCC1OC(OCC(O)C(O)C(O)C(/C=N/Nc2ccccc2)=N/Nc2ccccc2)C(O)C(O)C1O (centres undefined)
inactive: [1] > 100 µM | [2] > 100 µM | [3] 44.6 µM | [4] > 100 µM | [5] > 100 µM | [6] > 100 µM | [7] > 100 µM | [8] > 100 µM | [9] > 100 µM | [10] > 100 µM | [11] > 100 µM | [12] > 100 µM | [20] 85.5 µM | [13] 30.9 µM | [14] > 100 µM | [16] 79.3 µM | [18] > 100 µM | [19] > 100 µM

O=C(O)CSC(CC(=O)c1ccc(Cl)cc1)c1ccc(Cl)cc1 (centres undefined)
inactive: [1] 21.8 µM | [2] 38.4 µM | [3] 49.8 µM | [4] 34.8 µM | [5] 41 µM | [7] 2.37 µM | [8] 34.6 µM | [9] 42.1 µM | [10] 42 µM | [11] 22.1 µM | [12] 6.81 µM | [13] 30.8 µM | [14] > 100 µM | [16] 36.6 µM | [17] 50.8 µM | [18] 36.5 µM | [19] 21.2 µM

COc1ccc(C(c2ccccc2)N2C(=O)CCC2C(=O)O)cc1OC (centres undefined)
inactive: [1] > 100 µM | [2] > 100 µM | [3] > 100 µM | [4] > 100 µM | [5] > 100 µM | [6] > 100 µM | [7] > 100 µM | [8] > 100 µM | [9] > 100 µM | [10] > 100 µM | [11] > 100 µM | [12] > 100 µM | [20] > 100 µM | [13] > 100 µM | [14] > 100 µM | [16] > 100 µM | [17] > 100 µM | [18] > 100 µM | [19] > 100 µM

COC(=O)/C=C/N1CC1
inactive: [1] > 10 µM | [2] > 10 µM | [3] 2.19 µM | [4] > 10 µM | [5] > 10 µM | [6] 3.62 µM | [7] 8.63 µM | [8] > 10 µM | [9] > 10 µM | [10] > 10 µM | [11] > 10 µM | [12] > 10 µM | [20] > 10 µM | [13] > 10 µM | [14] 4.76 µM | [16] > 10 µM | [17] > 10 µM | [18] > 10 µM | [19] > 10 µM

CC1=NN(c2cccc(Cl)c2)C(=N/c2nc3ccccc3s2)/C1=C\c1ccccc1O
inactive: [1] 30.1 µM | [4] 43.8 µM | [5] 64.9 µM | [6] 19.6 µM | [7] 28.1 µM | [8] 22 µM | [9] 38 µM | [10] 21 µM | [11] 33.6 µM | [12] 34.2 µM | [13] 27.1 µM | [14] 61.7 µM | [15] 38.1 µM | [16] 42.8 µM | [17] 18.9 µM | [18] 26 µM | [19] 21.9 µM

N#Cc1nc(C2SCCCS2)oc1N
inactive: [1] > 100 µM | [2] > 100 µM | [4] > 100 µM | [5] > 100 µM | [7] > 100 µM | [8] 43 µM | [9] > 100 µM | [10] > 100 µM | [11] > 100 µM | [12] > 100 µM | [14] > 100 µM | [17] > 100 µM | [18] > 100 µM | [19] > 100 µM

CC1(C)OCC(C(O)C2OC(C)(C)OC2C=O)O1 (centres undefined)
inactive: [1] > 100 µM | [2] > 100 µM | [3] > 100 µM | [4] > 100 µM | [5] > 100 µM | [8] > 100 µM | [9] > 100 µM | [10] > 100 µM | [11] > 100 µM | [12] > 100 µM | [20] > 100 µM | [14] > 100 µM | [17] > 100 µM | [18] > 100 µM | [19] > 100 µM

O=C(NCCN1CCOCC1)c1ccc2cc(C(=O)N3CC(CCl)c4ccc([N+](=O)[O-])cc43)[nH]c2c1 (centres undefined)
inactive: [1] 4.41 µM | [2] 5.19 µM | [3] 25 µM | [4] 17.5 µM | [5] 16.6 µM | [6] 15 µM | [7] 6.14 µM | [8] 4.83 µM | [9] 7.38 µM | [10] 15.5 µM | [11] 15.5 µM | [12] 6.52 µM | [13] 11.4 µM | [14] > 100 µM | [15] 5.01 µM | [16] 60.4 µM | [17] 16 µM | [18] 16.1 µM | [19] 25 µM

O=C1c2cccnc2S(=O)(=O)N1c1ccc([N+](=O)[O-])cc1
inactive: [1] > 100 µM | [2] > 100 µM | [3] > 100 µM | [4] > 100 µM | [5] > 100 µM | [6] > 100 µM | [7] 24 µM | [8] 64 µM | [9] > 100 µM | [10] > 100 µM | [11] > 100 µM | [12] > 100 µM | [20] 51.8 µM | [13] > 100 µM | [14] > 100 µM | [16] > 100 µM | [17] > 100 µM | [18] > 100 µM | [19] > 100 µM

Cc1ccc(C2(O)CS/C(=N\C34CC5CC(CC(C5)C3)C4)N2C(P(=O)(O)O)P(=O)(O)O)cc1 (centres undefined)
inactive: [1] > 100 µM | [2] 76.7 µM | [3] > 100 µM | [4] > 100 µM | [5] > 100 µM | [6] 68.1 µM | [7] 37.7 µM | [8] 73.1 µM | [9] > 100 µM | [10] 56.6 µM | [11] > 100 µM | [12] 37.9 µM | [20] 63.7 µM | [13] 41.3 µM | [14] 82.8 µM | [16] > 100 µM | [17] 27.5 µM | [18] 72.8 µM
